Assay results taken from the NIST ThermoML archive (doi:10.1007/s10765-009-0625-z).
Numbers after ± are expanded uncertainties.

Experiment: xn = mol fraction of the nth substance listed
Conditions: Liquid

c1ccc2[nH]ccc2c1 [1H-indole] + Cc1ccc2ccccc2c1
specific volume (293.15 K, 100 kPa, x1 = 0.25): 0.0009744 ± 7e-07 m3/kg
specific volume (293.15 K, 100 kPa, x1 = 0.5): 0.0009522 ± 7e-07 m3/kg
specific volume (303.15 K, 100 kPa, x1 = 0.25): 0.0009821 ± 9e-07 m3/kg
specific volume (303.15 K, 100 kPa, x1 = 0.5): 0.0009621 ± 9e-07 m3/kg
specific volume (303.15 K, 100 kPa, x1 = 0.75): 0.0009406 ± 8e-07 m3/kg
specific volume (313.15 K, 100 kPa, x1 = 0.25): 0.0009893 ± 1e-06 m3/kg
specific volume (313.15 K, 100 kPa, x1 = 0.5): 0.0009692 ± 1e-06 m3/kg
specific volume (313.15 K, 100 kPa, x1 = 0.75): 0.0009471 ± 1e-06 m3/kg
specific volume (323.15 K, 100 kPa, x1 = 0.25): 0.0009968 ± 1.2e-06 m3/kg
specific volume (323.15 K, 100 kPa, x1 = 0.5): 0.0009765 ± 1.2e-06 m3/kg
specific volume (323.15 K, 100 kPa, x1 = 0.75): 0.0009539 ± 1.1e-06 m3/kg
specific volume (323.15 K, 100 kPa, x1 = 1): 0.0009295 ± 1.1e-06 m3/kg
specific volume (333.15 K, 100 kPa, Constant-volume piezometry, x1 = 0.25): 0.001005 ± 3e-07 m3/kg
specific volume (333.15 K, 100 kPa, Constant-volume piezometry, x1 = 0.5): 0.0009836 ± 3e-07 m3/kg
specific volume (333.15 K, 100 kPa, Constant-volume piezometry, x1 = 0.75): 0.0009609 ± 3e-07 m3/kg
specific volume (333.15 K, 100 kPa, Constant-volume piezometry, x1 = 1): 0.000936 ± 3e-07 m3/kg
specific volume (333.15 K, 100 kPa, x1 = 0.25): 0.001005 ± 1.3e-06 m3/kg
specific volume (333.15 K, 100 kPa, x1 = 0.5): 0.0009836 ± 1.3e-06 m3/kg
specific volume (333.15 K, 100 kPa, x1 = 0.75): 0.0009609 ± 1.3e-06 m3/kg
specific volume (333.15 K, 100 kPa, x1 = 1): 0.000936 ± 1.2e-06 m3/kg
specific volume (333.15 K, 10000 kPa, Constant-volume piezometry, x1 = 0.25): 0.0009988 ± 3e-07 m3/kg
specific volume (333.15 K, 10000 kPa, Constant-volume piezometry, x1 = 0.5): 0.0009782 ± 3e-07 m3/kg
specific volume (333.15 K, 10000 kPa, Constant-volume piezometry, x1 = 0.75): 0.000956 ± 3e-07 m3/kg
specific volume (333.15 K, 10000 kPa, Constant-volume piezometry, x1 = 1): 0.0009315 ± 3e-07 m3/kg
specific volume (333.15 K, 20000 kPa, Constant-volume piezometry, x1 = 0.25): 0.000993 ± 3e-07 m3/kg
specific volume (333.15 K, 20000 kPa, Constant-volume piezometry, x1 = 0.5): 0.000973 ± 3e-07 m3/kg
specific volume (333.15 K, 20000 kPa, Constant-volume piezometry, x1 = 0.75): 0.0009513 ± 3e-07 m3/kg
specific volume (333.15 K, 20000 kPa, Constant-volume piezometry, x1 = 1): 0.0009273 ± 3e-07 m3/kg
specific volume (333.15 K, 30000 kPa, Constant-volume piezometry, x1 = 0.25): 0.0009876 ± 4e-07 m3/kg
specific volume (333.15 K, 30000 kPa, Constant-volume piezometry, x1 = 0.5): 0.0009679 ± 4e-07 m3/kg
specific volume (333.15 K, 30000 kPa, Constant-volume piezometry, x1 = 0.75): 0.0009467 ± 4e-07 m3/kg
specific volume (333.15 K, 30000 kPa, Constant-volume piezometry, x1 = 1): 0.0009228 ± 4e-07 m3/kg
specific volume (333.15 K, 40000 kPa, Constant-volume piezometry, x1 = 0.25): 0.0009824 ± 5e-07 m3/kg
specific volume (333.15 K, 40000 kPa, Constant-volume piezometry, x1 = 0.5): 0.0009633 ± 4e-07 m3/kg
specific volume (333.15 K, 40000 kPa, Constant-volume piezometry, x1 = 0.75): 0.0009422 ± 4e-07 m3/kg
specific volume (333.15 K, 40000 kPa, Constant-volume piezometry, x1 = 1): 0.0009192 ± 4e-07 m3/kg
specific volume (333.15 K, 50000 kPa, Constant-volume piezometry, x1 = 0.25): 0.0009776 ± 5e-07 m3/kg
specific volume (333.15 K, 50000 kPa, Constant-volume piezometry, x1 = 0.5): 0.0009586 ± 5e-07 m3/kg
specific volume (333.15 K, 50000 kPa, Constant-volume piezometry, x1 = 0.75): 0.0009379 ± 5e-07 m3/kg
specific volume (333.15 K, 50000 kPa, Constant-volume piezometry, x1 = 1): 0.0009157 ± 5e-07 m3/kg
specific volume (333.15 K, 60000 kPa, Constant-volume piezometry, x1 = 0.25): 0.0009732 ± 6e-07 m3/kg
specific volume (333.15 K, 60000 kPa, Constant-volume piezometry, x1 = 0.5): 0.0009544 ± 6e-07 m3/kg
specific volume (333.15 K, 60000 kPa, Constant-volume piezometry, x1 = 0.75): 0.0009341 ± 6e-07 m3/kg
specific volume (333.15 K, 70000 kPa, Constant-volume piezometry, x1 = 0.25): 0.0009685 ± 6e-07 m3/kg
specific volume (333.15 K, 70000 kPa, Constant-volume piezometry, x1 = 0.5): 0.0009504 ± 6e-07 m3/kg
specific volume (333.15 K, 70000 kPa, Constant-volume piezometry, x1 = 0.75): 0.0009304 ± 6e-07 m3/kg
specific volume (333.15 K, 80000 kPa, Constant-volume piezometry, x1 = 0.25): 0.0009645 ± 7e-07 m3/kg
specific volume (333.15 K, 80000 kPa, Constant-volume piezometry, x1 = 0.5): 0.0009464 ± 7e-07 m3/kg
specific volume (333.15 K, 80000 kPa, Constant-volume piezometry, x1 = 0.75): 0.0009267 ± 7e-07 m3/kg
specific volume (333.15 K, 90000 kPa, Constant-volume piezometry, x1 = 0.25): 0.0009607 ± 8e-07 m3/kg
specific volume (333.15 K, 90000 kPa, Constant-volume piezometry, x1 = 0.5): 0.0009427 ± 8e-07 m3/kg
specific volume (333.15 K, 90000 kPa, Constant-volume piezometry, x1 = 0.75): 0.0009233 ± 8e-07 m3/kg
specific volume (333.15 K, 100000 kPa, Constant-volume piezometry, x1 = 0.25): 0.0009569 ± 9e-07 m3/kg
specific volume (333.15 K, 100000 kPa, Constant-volume piezometry, x1 = 0.5): 0.0009391 ± 8e-07 m3/kg
specific volume (333.15 K, 100000 kPa, Constant-volume piezometry, x1 = 0.75): 0.0009198 ± 8e-07 m3/kg
specific volume (333.15 K, 110000 kPa, Constant-volume piezometry, x1 = 0.25): 0.0009533 ± 9e-07 m3/kg
specific volume (333.15 K, 110000 kPa, Constant-volume piezometry, x1 = 0.5): 0.0009358 ± 9e-07 m3/kg
specific volume (333.15 K, 110000 kPa, Constant-volume piezometry, x1 = 0.75): 0.0009167 ± 9e-07 m3/kg
specific volume (333.15 K, 120000 kPa, Constant-volume piezometry, x1 = 0.25): 0.0009497 ± 1e-06 m3/kg
specific volume (333.15 K, 120000 kPa, Constant-volume piezometry, x1 = 0.5): 0.0009325 ± 1e-06 m3/kg
specific volume (333.15 K, 120000 kPa, Constant-volume piezometry, x1 = 0.75): 0.0009134 ± 1e-06 m3/kg
specific volume (333.15 K, 130000 kPa, Constant-volume piezometry, x1 = 0.25): 0.0009464 ± 1.1e-06 m3/kg
specific volume (333.15 K, 130000 kPa, Constant-volume piezometry, x1 = 0.5): 0.0009292 ± 1e-06 m3/kg
specific volume (333.15 K, 130000 kPa, Constant-volume piezometry, x1 = 0.75): 0.0009104 ± 1e-06 m3/kg
specific volume (333.15 K, 140000 kPa, Constant-volume piezometry, x1 = 0.25): 0.0009432 ± 1.1e-06 m3/kg
specific volume (333.15 K, 140000 kPa, Constant-volume piezometry, x1 = 0.5): 0.0009262 ± 1.1e-06 m3/kg
specific volume (333.15 K, 140000 kPa, Constant-volume piezometry, x1 = 0.75): 0.0009077 ± 1.1e-06 m3/kg
specific volume (333.15 K, 150000 kPa, Constant-volume piezometry, x1 = 0.25): 0.00094 ± 1.2e-06 m3/kg
specific volume (333.15 K, 150000 kPa, Constant-volume piezometry, x1 = 0.5): 0.0009231 ± 1.2e-06 m3/kg
specific volume (333.15 K, 150000 kPa, Constant-volume piezometry, x1 = 0.75): 0.0009048 ± 1.2e-06 m3/kg
specific volume (333.15 K, 160000 kPa, Constant-volume piezometry, x1 = 0.25): 0.0009369 ± 1.3e-06 m3/kg
specific volume (333.15 K, 160000 kPa, Constant-volume piezometry, x1 = 0.5): 0.0009202 ± 1.3e-06 m3/kg
specific volume (333.15 K, 160000 kPa, Constant-volume piezometry, x1 = 0.75): 0.000902 ± 1.2e-06 m3/kg
specific volume (333.15 K, 170000 kPa, Constant-volume piezometry, x1 = 0.25): 0.000934 ± 1.3e-06 m3/kg
specific volume (333.15 K, 170000 kPa, Constant-volume piezometry, x1 = 0.5): 0.0009174 ± 1.3e-06 m3/kg
specific volume (333.15 K, 180000 kPa, Constant-volume piezometry, x1 = 0.5): 0.0009148 ± 1.4e-06 m3/kg
specific volume (333.15 K, 190000 kPa, Constant-volume piezometry, x1 = 0.5): 0.0009122 ± 1.5e-06 m3/kg
specific volume (333.15 K, 200000 kPa, Constant-volume piezometry, x1 = 0.5): 0.0009095 ± 1.5e-06 m3/kg
specific volume (333.15 K, 210000 kPa, Constant-volume piezometry, x1 = 0.5): 0.000907 ± 1.6e-06 m3/kg
specific volume (333.15 K, 220000 kPa, Constant-volume piezometry, x1 = 0.5): 0.0009047 ± 1.6e-06 m3/kg
specific volume (333.15 K, 230000 kPa, Constant-volume piezometry, x1 = 0.5): 0.0009023 ± 1.7e-06 m3/kg
specific volume (333.15 K, 240000 kPa, Constant-volume piezometry, x1 = 0.5): 0.0008999 ± 1.8e-06 m3/kg
specific volume (333.15 K, 250000 kPa, Constant-volume piezometry, x1 = 0.5): 0.0008977 ± 1.8e-06 m3/kg
specific volume (333.15 K, 260000 kPa, Constant-volume piezometry, x1 = 0.5): 0.0008956 ± 1.9e-06 m3/kg
specific volume (333.15 K, 270000 kPa, Constant-volume piezometry, x1 = 0.5): 0.0008934 ± 2e-06 m3/kg
specific volume (343.15 K, 100 kPa, x1 = 0.25): 0.001013 ± 1.5e-06 m3/kg
specific volume (343.15 K, 100 kPa, x1 = 0.5): 0.0009909 ± 1.4e-06 m3/kg
specific volume (343.15 K, 100 kPa, x1 = 0.75): 0.0009674 ± 1.4e-06 m3/kg
specific volume (343.15 K, 100 kPa, x1 = 1): 0.0009428 ± 1.4e-06 m3/kg
specific volume (353.15 K, 100 kPa, x1 = 0.25): 0.00102 ± 1.6e-06 m3/kg
specific volume (353.15 K, 100 kPa, x1 = 0.5): 0.0009983 ± 1.6e-06 m3/kg
specific volume (353.15 K, 100 kPa, x1 = 0.75): 0.0009747 ± 1.6e-06 m3/kg
specific volume (353.15 K, 100 kPa, x1 = 1): 0.0009499 ± 1.5e-06 m3/kg
